The experiment concerns RAW264.7. The experiment in a line: Inhibition of LPS-induced NO production in mouse RAW264.7 cells incubated for 24 hrs by Griess reagent based assay. The conditions noted are these: RAW264.7, 24 h. The format is functional, cell-based.

SMILES strings stand for the structures.

Take `C=C1C(=O)O[C@H]2C[C@@H](C)[C@@H]3[C@@H](OC(C)=O)C[C@H](O)[C@]3(C)[C@@H](OC(C)=O)[C@H]12`: the IC50 (in general, the concentration that gives 50% inhibition) amounted to 3200 nM.

`C=C1C(=O)O[C@H]2C[C@@H](C)[C@@H]3[C@@H](OC(C)=O)C[C@H](OC(C)=O)[C@@]3(C)[C@@H](O)[C@H]12` returned an IC50 of 2500 nM.

Take `C=C1C(=O)O[C@H]2C[C@H](C)[C@@H]3[C@@H](OC(C)=O)C[C@H](O)[C@@]3(C)C[C@H]12`: the 50% inhibitory concentration (IC50) came out at 2800 nM.

`C=C1C(=O)O[C@@H]2CC(C)=C([C@@H](C)CCCOC(C)=O)[C@@H](OC(=O)C[C@H](C)CC)[C@H]12` returned an IC50 of 6600 nM.

In the case of `C=C1C(=O)O[C@H]2C[C@@H](C)[C@@H]3[C@H](OC(C)=O)C[C@H](O)[C@@]3(C)[C@@H](O)[C@H]12`, 15400 nM corresponded to half-maximal inhibition (IC50).

The molecule `COc1ccc2c(c1)c(CC(=O)O)c(C)n2C(=O)c1ccc(Cl)cc1` [INDOMETHACIN] yielded a half-maximal inhibitory concentration (IC50) of 11600 nM.

`C=C1C(=O)O[C@H]2C[C@@H](C)[C@@H]3CC[C@H](O)[C@@]3(C)C[C@H]12` [PSEUDOGUAIANOLIDE] showed an IC50 of 2500 nM.

`C=C1C(=O)O[C@@H]2C[C@H](C)C(CCC(C)=O)=CC[C@H]12` [TOMENTOSIN]: the IC50 worked out at 2000 nM.

(Values after ChEMBL document CHEMBL4715735, “Sesquiterpenes from Inula japonica with Inhibitory Effects on Nitric Oxide Production in Murine Macrophage RAW 264.7 Cells” (J Nat Prod, 2016).)
